Laboratory results as given in patent US20250346597A1, “CONDENSED HETEROCYCLIC COMPOUNDS AS INHIBITOR OF DIACYLGLYCEROL KINASES” (BEONE MEDICINES I GMBH, priority 2023, published 2025).

What was measured:
DGKζ = DGKζ (Homo sapiens (Human), UniProt Q13574); assay: Biochemical DGK IC50 assay (ADP-Glo, lipid micelle substrate), DGKζ; settings: full length DGKζ 0.5 nM, ATP 140 μM, DAG 80 μM
Procedure, shortened: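 ADP-Glo luminescence measured ADP made in a 1 h room-temperature reaction. The enzyme was Sf9-expressed, purified full-length human DGKζ, and the substrate was DAG/PS micelles. Assay buffer held 50 mM HEPES, 10 mM MgCl2, 0.01 mM CaCl2, 0.1 mM Na3VO4 and 0.01% BSA. IC50 was derived from activity inhibition over a compound concentration series.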

DGKα = DGKα (Homo sapiens (Human), UniProt P23743); assay: Biochemical DGK IC50 assay (ADP-Glo, lipid micelle substrate), DGKα; settings: full length DGKα […], ATP 140 μM, DAG 80 μM; further: full length DGKα 7.5 nM
Procedure, shortened: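 Luminescent ADP-Glo detection followed a 1 h room-temperature reaction of full-length DGKα on DAG/PS micelles, in HEPES buffer with 10 mM MgCl2, 0.01 mM CaCl2, 0.1 mM Na3VO4, BSA and Tween-20. IC50 derived from inhibition across increasing compound concentrations.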

DGKα, sequence (P23743 whole entry): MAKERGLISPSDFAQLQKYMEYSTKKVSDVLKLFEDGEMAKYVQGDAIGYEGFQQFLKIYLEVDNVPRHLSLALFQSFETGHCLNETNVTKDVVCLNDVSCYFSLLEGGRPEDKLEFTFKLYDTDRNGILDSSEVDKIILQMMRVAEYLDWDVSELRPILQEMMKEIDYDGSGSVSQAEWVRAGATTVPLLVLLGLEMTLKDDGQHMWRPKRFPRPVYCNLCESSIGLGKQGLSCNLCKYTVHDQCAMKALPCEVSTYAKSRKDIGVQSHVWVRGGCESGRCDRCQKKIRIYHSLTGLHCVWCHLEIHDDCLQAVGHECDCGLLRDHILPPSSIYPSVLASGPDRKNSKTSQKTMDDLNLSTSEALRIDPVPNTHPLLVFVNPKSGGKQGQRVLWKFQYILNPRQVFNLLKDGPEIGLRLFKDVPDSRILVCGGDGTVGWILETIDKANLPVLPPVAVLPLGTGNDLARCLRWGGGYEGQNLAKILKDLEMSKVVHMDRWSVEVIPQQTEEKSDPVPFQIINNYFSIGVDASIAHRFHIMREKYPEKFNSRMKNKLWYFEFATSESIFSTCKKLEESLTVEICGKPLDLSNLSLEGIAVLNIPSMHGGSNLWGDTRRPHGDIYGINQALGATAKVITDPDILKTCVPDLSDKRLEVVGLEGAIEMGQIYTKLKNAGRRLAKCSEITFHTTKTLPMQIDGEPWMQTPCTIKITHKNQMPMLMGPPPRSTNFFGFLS
DGKζ, sequence (Q13574 other isoform, or with tags, fused parts or gaps): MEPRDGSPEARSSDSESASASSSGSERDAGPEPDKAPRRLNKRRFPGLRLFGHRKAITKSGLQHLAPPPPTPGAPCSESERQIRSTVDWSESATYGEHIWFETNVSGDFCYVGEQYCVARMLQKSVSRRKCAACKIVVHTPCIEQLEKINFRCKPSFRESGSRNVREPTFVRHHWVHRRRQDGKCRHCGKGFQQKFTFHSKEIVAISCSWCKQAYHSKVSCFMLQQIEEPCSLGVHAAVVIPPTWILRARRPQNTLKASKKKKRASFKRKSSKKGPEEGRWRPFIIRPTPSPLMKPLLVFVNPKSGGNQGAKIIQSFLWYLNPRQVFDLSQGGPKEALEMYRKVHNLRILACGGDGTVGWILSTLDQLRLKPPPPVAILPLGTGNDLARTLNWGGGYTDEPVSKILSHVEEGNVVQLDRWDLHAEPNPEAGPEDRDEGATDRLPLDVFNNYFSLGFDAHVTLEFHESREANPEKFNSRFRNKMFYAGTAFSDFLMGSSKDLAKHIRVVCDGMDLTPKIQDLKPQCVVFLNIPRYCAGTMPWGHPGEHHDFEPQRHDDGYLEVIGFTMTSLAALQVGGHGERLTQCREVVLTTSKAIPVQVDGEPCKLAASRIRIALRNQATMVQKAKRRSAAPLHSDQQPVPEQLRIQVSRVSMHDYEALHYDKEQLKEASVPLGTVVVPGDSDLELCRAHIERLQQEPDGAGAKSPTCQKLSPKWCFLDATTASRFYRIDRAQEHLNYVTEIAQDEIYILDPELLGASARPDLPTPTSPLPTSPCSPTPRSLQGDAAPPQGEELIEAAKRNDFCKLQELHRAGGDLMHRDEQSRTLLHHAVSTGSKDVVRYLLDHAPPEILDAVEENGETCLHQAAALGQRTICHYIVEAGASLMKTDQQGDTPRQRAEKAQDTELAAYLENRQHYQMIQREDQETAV

## CC[C@H]1CN(C(C)c2ccc3c(c2)CCC3(C)C)[C@H](CC)CN1c1cc(=O)n(C)c2cn(CC#N)nc12 (stereo partly drawn) [Compound A66, 2-(7-((2S,5R)-4-(1-(1,1-dimethyl-2,3-dihydro-1H-inden-5-yl)ethyl)-2,5-diethylpiperazin-1-yl)-4-methyl-5-oxo-4,5-dihydro-2H-pyrazolo[4,3-b]pyridin-2-yl)acetonitrile]
DGKζ
  IC50: 96 nM
DGKα
  IC50: 2250 nM

## CC[C@H]1CN(C(C)c2ccc3c(c2)CCO3)[C@H](CC)CN1c1cc(=O)n(C)c2cn(CC#N)nc12 (stereo partly drawn) [Compound A67, 2-(7-((2S,5R)-4-(1-(2,3-dihydrobenzofuran-5-yl)ethyl)-2,5-diethylpiperazin-1-yl)-4-methyl-5-oxo-4,5-dihydro-2H-pyrazolo[4,3-b]pyridin-2-yl)acetonitrile]
DGKζ
  IC50: 71 nM
DGKα
  IC50: 245 nM

## CC(c1ccc2c(c1F)OC(C)(C)O2)N1C[C@H](C)N(c2cc(=O)n(C)c3cn(CC#N)nc23)C[C@H]1C (stereo partly drawn) [Compound A69, 2-(7-((2S,5R)-4-(1-(4-fluoro-2,2-dimethylbenzo[d][1,3]dioxol-5-yl)ethyl)-2,5-dimethylpiperazin-1-yl)-4-methyl-5-oxo-4,5-dihydro-2H-pyrazolo[4,3-b]pyridin-2-yl)acetonitrile]
DGKζ
  IC50: 20 nM
DGKα
  IC50: 4730 nM

## CC(c1ccc2c(c1)OC(C)(C)O2)N1C[C@H](C)N(c2cc(=O)n(C)c3cn(CC#N)nc23)C[C@H]1C (stereo partly drawn) [Compound A70, 2-(7-((2S,5R)-4-(1-(2,2-dimethylbenzo[d][1,3]dioxol-5-yl)ethyl)-2,5-dimethylpiperazin-1-yl)-4-methyl-5-oxo-4,5-dihydro-2H-pyrazolo[4,3-b]pyridin-2-yl)acetonitrile]
DGKζ
  IC50: 31 nM
DGKα
  IC50: 12400 nM

## CC[C@H]1CN(C(C)c2ccc3c(c2F)OC(C)(C)O3)[C@H](CC)CN1c1cc(=O)n(C)c2cn(CC#N)nc12 (stereo partly drawn) [Compound A71, 2-(7-((2S,5R)-2,5-diethyl-4-(1-(4-fluoro-2,2-dimethylbenzo[d][1,3]dioxol-5-yl)ethyl)piperazin-1-yl)-4-methyl-5-oxo-4,5-dihydro-2H-pyrazolo[4,3-b]pyridin-2-yl)acetonitrile]
DGKζ
  IC50: 4 nM
DGKα
  IC50: 1830 nM

## CC[C@H]1CN(C(C)c2ccc3c(n2)CCC3)[C@H](CC)CN1c1cc(=O)n(C)c2cn(CC#N)nc12 (stereo partly drawn) [Compound A72, 2-(7-((2S,5R)-4-(1-(6,7-dihydro-5H-cyclopenta[b]pyridin-2-yl)ethyl)-2,5-diethylpiperazin-1-yl)-4-methyl-5-oxo-4,5-dihydro-2H-pyrazolo[4,3-b]pyridin-2-yl)acetonitrile]
DGKζ
  IC50: 33 nM
DGKα
  IC50: 27 nM

## CC[C@H]1CN(C(C)c2ccc3c(n2)CCO3)[C@H](CC)CN1c1cc(=O)n(C)c2cn(CC#N)nc12 (stereo partly drawn) [Compound A73, 2-(7-((2S,5R)-4-(1-(2,3-dihydrofuro[3,2-b]pyridin-5-yl)ethyl)-2,5-diethylpiperazin-1-yl)-4-methyl-5-oxo-4,5-dihydro-2H-pyrazolo[4,3-b]pyridin-2-yl)acetonitrile]
DGKζ
  IC50: 126 nM
DGKα
  IC50: 91 nM

## CC[C@H]1CN(C(C)c2cnc3c(c2)CCO3)[C@H](CC)CN1c1cc(=O)n(C)c2cn(CC#N)nc12 (stereo partly drawn) [Compound A74, 2-(7-((2S,5R)-4-(1-(2,3-dihydrofuro[2,3-b]pyridin-5-yl)ethyl)-2,5-diethylpiperazin-1-yl)-4-methyl-5-oxo-4,5-dihydro-2H-pyrazolo[4,3-b]pyridin-2-yl)acetonitrile]
DGKζ
  IC50: 475 nM
DGKα
  IC50: 5820 nM

## CC[C@H]1CN(C(C)c2ccc3c(F)cnn3c2)[C@H](CC)CN1c1cc(=O)n(C)c2cn(CC#N)nc12 (stereo partly drawn) [Compound A76, 2-(7-((2S,5R)-2,5-diethyl-4-(1-(3-fluoropyrazolo[1,5-a]pyridin-6-yl)ethyl)piperazin-1-yl)-4-methyl-5-oxo-4,5-dihydro-2H-pyrazolo[4,3-b]pyridin-2-yl)acetonitrile]
DGKζ
  IC50: 179 nM
DGKα
  IC50: 1600 nM

## CC[C@H]1CN(C(C)c2cnc3c(c2)ncn3C)[C@H](CC)CN1c1cc(=O)n(C)c2cn(CC#N)nc12 (stereo partly drawn) [Compound A78, 2-(7-((2S,5R)-2,5-diethyl-4-(1-(3-methyl-3H-imidazo[4,5-b]pyridin-6-yl)ethyl)piperazin-1-yl)-4-methyl-5-oxo-4,5-dihydro-2H-pyrazolo[4,3-b]pyridin-2-yl)acetonitrile]
DGKζ
  IC50: 1870 nM
DGKα
  IC50: 25000 nM

## CC[C@H]1CN(C(C)c2ccc3nscc3c2)[C@H](CC)CN1c1cc(=O)n(C)c2cn(CC#N)nc12 (stereo partly drawn) [Compound A88, 2-(7-((2S,5R)-4-(1-(benzo[c]isothiazol-5-yl)ethyl)-2,5-diethylpiperazin-1-yl)-4-methyl-5-oxo-4,5-dihydro-2H-pyrazolo[4,3-b]pyridin-2-yl)acetonitrile]
DGKζ
  IC50: 10 nM
DGKα
  IC50: 51 nM

## CC[C@H]1CN(C(C)c2ccc3ccsc3c2)[C@H](CC)CN1c1cc(=O)n(C)c2cn(CC#N)nc12 (stereo partly drawn) [Compound A89, 2-(7-((2S,5R)-4-(1-(benzo[b]thiophen-6-yl)ethyl)-2,5-diethylpiperazin-1-yl)-4-methyl-5-oxo-4,5-dihydro-2H-pyrazolo[4,3-b]pyridin-2-yl)acetonitrile]
DGKζ
  IC50: 34 nM
DGKα
  IC50: 28 nM

## CC(c1ccc2ncsc2c1)N1C[C@H](C)N(c2cc(=O)n(C)c3cn(CC#N)nc23)C[C@H]1C (stereo partly drawn) [Compound A93, 2-(7-((2S,5R)-4-(1-(benzo[d]thiazol-6-yl)ethyl)-2,5-dimethylpiperazin-1-yl)-4-methyl-5-oxo-4,5-dihydro-2H-pyrazolo[4,3-b]pyridin-2-yl)acetonitrile]
DGKζ
  IC50: 99 nM
DGKα
  IC50: 493 nM

## CC[C@H]1CN(C(C)c2ccc3ncsc3c2)[C@H](CC)CN1c1c(Br)c(=O)n(C)c2cn(CC#N)nc12 (some centres unmarked) [Compound A94]
DGKζ
  IC50: 974 nM
DGKα
  IC50: 1850 nM

## CC[C@H]1CN(C(C)c2ccc3ncsc3c2)[C@H](CC)CN1c1c(C#N)c(=O)n(C)c2cn(CC#N)nc12 (stereo partly drawn) [Compound A95, 7-((2S,5R)-4-(1-(benzo[d]thiazol-6-yl)ethyl)-2,5-diethylpiperazin-1-yl)-2-(cyanomethyl)-4-methyl-5-oxo-4,5-dihydro-2H-pyrazolo[4,3-b]pyridine-6-carbonitrile]
DGKζ
  IC50: 64 nM
DGKα
  IC50: 52 nM

## CC[C@H]1CN(C(C)c2cc3scnc3cn2)[C@H](CC)CN1c1cc(=O)n(C)c2cn(CC#N)nc12 (stereo partly drawn) [Compound A97, 2-(7-((2S,5R)-2,5-diethyl-4-(1-(thiazolo[4,5-c]pyridin-6-yl)ethyl)piperazin-1-yl)-4-methyl-5-oxo-4,5-dihydro-2H-pyrazolo[4,3-b]pyridin-2-yl)acetonitrile]
DGKζ
  IC50: 256 nM
DGKα
  IC50: 502 nM

## CC[C@H]1CN(C(C)c2ccc3ocnc3c2)[C@H](CC)CN1c1cc(=O)n(C)c2cn(CC#N)nc12 (some centres unmarked) [Compound A105]
DGKζ
  IC50: 157 nM
DGKα
  IC50: 58 nM

## CC[C@H]1CN(C(C)c2ccc3sc(C)nc3c2)[C@H](CC)CN1c1cc(=O)n(C)c2cn(CC#N)nc12 (stereo partly drawn) [Compound A108, 2-(7-((2S,5R)-2,5-diethyl-4-(1-(2-methylbenzo[d]thiazol-5-yl)ethyl)piperazin-1-yl)-4-methyl-5-oxo-4,5-dihydro-2H-pyrazolo[4,3-b]pyridin-2-yl)acetonitrile]
DGKζ
  IC50: 11 nM
DGKα
  IC50: 2650 nM

## CCc1nc2cc(C(C)N3C[C@H](CC)N(c4cc(=O)n(C)c5cn(CC#N)nc45)C[C@H]3CC)ccc2s1 (stereo partly drawn) [Compound A109, 2-(7-((2S,5R)-2,5-diethyl-4-(1-(2-ethylbenzo[d]thiazol-5-yl)ethyl)piperazin-1-yl)-4-methyl-5-oxo-4,5-dihydro-2H-pyrazolo[4,3-b]pyridin-2-y)acetonitrile]
DGKζ
  IC50: 18 nM
DGKα
  IC50: 2430 nM

## CC#CCn1cc2c(n1)c(N1C[C@@H](CC)N(C(C)c3ccc4ncsc4n3)C[C@@H]1C)cc(=O)n2C (stereo partly drawn) [Compound A118, 2-(but-2-yn-1-yl)-7-((2S,5R)-5-ethyl-2-methyl-4-(1-(thiazolo[5,4-b]pyridin-5-yl)ethyl)piperazin-1-yl)-4-methyl-2,4-dihydro-5H-pyrazolo[4,3-b]pyridin-5-one]
DGKζ
  IC50: 232 nM
DGKα
  IC50: 20 nM

## CC#CCn1cc2c(n1)c(N1C[C@@H](CC)N(C(C)c3ccc4scnc4c3)C[C@@H]1C)cc(=O)n2C (stereo partly drawn) [Compound A119, 7-((2S,5R)-4-(1-(benzo[d]thiazol-5-yl)ethyl)-5-ethyl-2-methylpiperazin-1-yl)-2-(but-2-yn-1-yl)-4-methyl-2,4-dihydro-5H-pyrazolo[4,3-b]pyridin-5-one]
DGKζ
  IC50: 859 nM
DGKα
  IC50: 193 nM

## CC[C@H]1CN(C(C)c2ccc(C3CC3)nc2)[C@H](CC)CN1c1cc(=O)n(C)c2cn(C3COC3)nc12 (stereo partly drawn) [Compound A121, 7-((2S,5R)-4-(1-(6-cyclopropylpyridin-3-yl)ethyl)-2,5-diethylpiperazin-1-yl)-4-methyl-2-(oxetan-3-yl)-2,4-dihydro-5H-pyrazolo[4,3-b]pyridin-5-one]
DGKζ
  IC50: 1470 nM
DGKα
  IC50: 3080 nM

## CC[C@H]1CN(C(C)c2ccc(C3CC3)nc2)[C@H](CC)CN1c1cc(=O)n(C)c2cn(CC3COC3)nc12 (stereo partly drawn) [Compound A122, 7-((2S,5R)-4-(1-(6-cyclopropylpyridin-3-yl)ethyl)-2,5-diethylpiperazin-1-yl)-4-methyl-2-(oxetan-3-ylmethyl)-2,4-dihydro-5H-pyrazolo[4,3-b]pyridin-5-one]
DGKζ
  IC50: > 10000 nM
DGKα
  IC50: 17100 nM

## CC[C@H]1CN(C(C)c2ccc3ncsc3c2)[C@H](CC)CN1c1nc(=O)n(C)c2cn(CC#N)nc12 (stereo partly drawn) [Compound A123, 2-(7-((2S,5R)-4-(1-(benzo[d]thiazol-6-yl)ethyl)-2,5-diethylpiperazin-1-yl)-4-methyl-5-oxo-4,5-dihydro-2H-pyrazolo[4,3-d]pyrimidin-2-yl)acetonitrile]
DGKζ
  IC50: 11 nM
DGKα
  IC50: 111 nM

## CC[C@H]1CN(C(C)c2ccc3nc(C)sc3c2)[C@H](CC)CN1c1nc(=O)n(C)c2cn(CC#N)nc12 (some centres unmarked) [Compound A124]
DGKζ
  IC50: 39 nM
DGKα
  IC50: 433 nM
